# Assay results as given in patent US11028086B2, “Pyrido-imidazo rifamycins” (Biofer S.p.A., priority 2017, dated 2021).
# Several values for one entry are separate records, joined by “and”; a condition that tells them apart may be missing. Equal values may be shown once. Read-outs that look alike come from different tables or passages of the source.
# Tests used:
# [1] = tested on: Staphylococcus aureus IM149; experiment: MIC by serial dilution, Strain A; format: cell-based; conditions: range between last concentration with growth and first without growth
# Experimental: (§1) The MICs were calculated using the serial dilution method, and are expressed as the range between the last concentration at which the bacterial strain grows and the first concentration at which the strain tested no longer grows.
# [2] = tested on: Bacillus Subtilis ATCC 6633; experiment: MIC by serial dilution, Strain B; format: cell-based; conditions: ATCC6633, range between last concentration with growth and first without growth
# Experimental: as §1
# [3] = tested on: Escherichia Coli ATCC 25922; experiment: MIC by serial dilution, Strain C; format: cell-based; conditions: ATCC25922, range between last concentration with growth and first without growth
# Experimental: as §1
# [4] = tested on: Escherichia Coli NK12; experiment: MIC by serial dilution, Strain D; format: cell-based; conditions: COLINK12, range between last concentration with growth and first without growth
# Experimental: as §1
# [5] = Pharmacokinetics after intravenous administration in male rats; conditions: Sprague-Dawley, rat, in vivo, 1 mg/kg
# Experimental: (§2) To 0.250 mL of this solution, 4.750 mL of saline are added, obtaining a final 0.2 mg/mL (5% DMSO, 95% saline) solution. A volume of 5 mL/Kg is administered to 3 rats in each group to have a 1 mg/Kg dose for each of the two products. • Oral Administration of RFX and Derivative 3: the two products were dissolved in DMSO obtaining two solutions having a 60 mg/mL concentration (stock solutions). To 0.5 mL of each solution, 2.0 mL of PEG 400 and 7.5 mL of saline solution were added under stirring, obtaining a stable suspension with a nominal concentration of 3 mg/mL. A volume equal to a 30 mg/kg dose is administered to the animal.
# (§3) Male Sprague Dawley rats, weighing between 250 and 300 g, were used in the study. The animals were housed and observed before the experiment according to an approved GMP protocol according to Italian legislation.
# (§4) The rats were divided into three groups: • Group 1: i.v. treatment • Group 2: oral treatment for blood sampling • Group 3: oral treatment for urine and stool collection
# (§5) Plasma: the calibration curve and the QC samples were prepared in untreated rat plasma, adding 5 μL of each stock solution to 45 μL of untreated rat plasma. The 50 μL of plasma obtained were diluted up to 100 μL with cold acetonitrile containing the Internal Standard (I.S.) at the final concentration of 50 ng/mL, and centrifuged for 5 min. at 9000 rpm at 5° C. The supernatant was transferred to a 96-well plate for analysis. The samples of Groups 1 and 2 were similarly prepared using 50 μL of plasma from the treated rats.
# (§6) A non-compartmental analysis was applied, and the following pharmacokinetic parameters were considered for each subject:
# (§7) The concentration data were extrapolated using the Analyst™ 6.1 software (Applied Biosystems); the AUCs were calculated using a linear-trapezoidal method, and a weight uniformity was performed as the first approach. The concentration/time graphs were performed after logarithmic transformation of the results using PK Solver 2.0 software, Excel 2007 Microsoft add in.
# [6] = Pharmacokinetics after oral administration in male rats; conditions: Sprague-Dawley, rat, in vivo
# Experimental: as §2, §3, §4, §5, §6, §7
# [7] = tested on: Bifidobacterium; experiment: qPCR count of intestinal bacteria in rat stool after 5 days oral treatment; format: in vivo, Sprague Dawley rats; conditions: for cell count average value Bifidobacterium: group average of cell counts; for Ct Values Bifidobacterium / Cell Count Bifidobacterium: individual rats, listed as RFX; for Ct Values Bifidobacterium: average of three qPCR analyses; for Cell Count Bifidobacterium: derived from Ct values
# Experimental: (§8) The stools were collected at T0 and the day after the last treatment.
# (§9) The two products were first dissolved in DMSO at the concentration of 100 mg/mL (stock solution), then to 0.5 mL of each solution 2.0 mL of PEG 400 and 7.5 mL of saline solution were added, under stirring. A stable suspension at the nominal concentration of 5 mg/mL is obtained. A volume of 10 mL/kg, equal to 50 mg/kg, is administered.
# (§10) The detection method is based on isolation of the total genomic DNA from each stool sample, using a specific commercial kit. After the quali-quantitative evaluation of the DNA, the same DNA samples were stored at −20° C. Quantitative analyzes were performed using qPCR Real Time with the use of a DNA primer couples specific for Bifidobacterium, Enterococcus, Enterobacter, and Lactobacillus species.
# (§11) DNA isolation was performed using the PowerFecal® DNA Isolation Kit (MO BIO Laboratories) commercial kit on a sample of 250 mg stool, each time. After isolation, the DNA samples were evaluated by spectrophotometric analysis. Each DNA sample was quantified in the 60-100 ng/μL range (high in proteins and sugars), as typical for stool-derived DNA.
# (§12) Each sample was evaluated three times. For each DNA sample and for each specific DNA primer couple, the analysis provided a CT value that resulted to be correlated to the amount of DNA specific to the bacterial species, therefore closely correlated to the number of bacterial cells of that species present in the stool sample.
# (§13) For relative quantification, a “generalized linear mixed model (GLMM) under Poisson-lognormal error” was applied. MCMC.qPCR R package was used to convert CT values into bacterial cell numbers. For the conversion, the formula: Number of cells=E(Ct1−Ct) was used, where E represents the efficiency of amplification, which in the present case assumes the value of 2. Ct1 represents the number of qPCR cycles needed to detect a single target molecule (in this study Ct1 is supposed to have the value of 39).
# (§14) The Markov Chain Monte Carlo algorithm (MCMC) was used to estimate the effect of time on the development levels of each microbial genus. The GLMM method was used to verify if the levels of each bacterial genus at T0 and T5 differ. Furthermore, a statistical analysis to evaluate the significance of the differences between the T0 and T5 values was performed.
# [8] = tested on: Enterobacter; experiment: as above; format: in vivo, Sprague Dawley rats; conditions: for cell count average value Enterobacter: group average of cell counts; for Ct Values Enterobacter / Cell Count Enterobacter: individual rats, listed as RFX; for Ct Values Enterobacter: average of three qPCR analyses; for Cell Count Enterobacter: derived from Ct values
# Experimental: as §8, §9, §10, §11, §12, §13, §14
# [9] = tested on: Enterococcus; experiment: as above; format: in vivo, Sprague Dawley rats; conditions: for cell count average value Enterococcus: group average of cell counts; for Ct Values Eterococcus / Cell Count Eterococcus: individual rats, listed as RFX; for Ct Values Eterococcus: average of three qPCR analyses; for Cell Count Eterococcus: derived from Ct values
# Experimental: as §8, §9, §10, §11, §12, §13, §14
# [10] = tested on: Lactobacillus; experiment: as above; format: in vivo, Sprague Dawley rats; conditions: for cell count average value Lactobacillus: group average of cell counts; for Ct Values Lactobacillus / Cell Count Lactobacillus: individual rats, listed as RFX; for Ct Values Lactobacillus: average of three qPCR analyses; for Cell Count Lactobacillus: derived from Ct values
# Experimental: as §8, §9, §10, §11, §12, §13, §14
# [11] = cited from earlier work
# [12] = T5 (day after 5 days oral 50 mg/kg)
# [13] = T5 (day after 5 days oral 50 mg/kg), 50 mg/kg
# [14] = oral treatment 5 days, 50 mg/kg, T5 vs T0
smiles,measurement,setting,value
"CO[C@H]1/C=C/O[C@@]2(C)Oc3c(C)c(O)c4c(O)c(c5c(nc6cc(C)ccn65)c4c3C2=O)NC(=O)/C(C)=C\C=C\[C@H](C)[C@H](O)[C@@H](C)[C@@H](O)[C@@H](C)[C@H](OC(C)=O)[C@@H]1C [Rifaximin, reference compound]",MIC,[1],0.25 to 0.5 µg/mL
same,MIC,[2],0.125 to 0.25 µg/mL
same,MIC,[3],2 to 4 µg/mL
same,MIC,[4],4 to 8 µg/mL
same,AUC(0-inf),[5],1990 ng·h/mL
same,AUC(0-t),[5],1990 ng·h/mL
same,C0,[5],3760 ng/mL
same,Cl_obs,[5],9.8 mL/min/kg
same,Cmax,[5],2880 ng/mL
same,MRT inf,[5],1.18 h
same,Tmax,[5],5 min
same,Vss_obs,[5],0.757 L/kg
same,half-life,[5],2.45 h
same,bioavailability,[6],0.4%
same,AUC(0-inf),"[6]; po, 30 mg/kg",222 ng·h/mL
same,AUC(0-t),"[6]; po, 30 mg/kg",197 ng·h/mL
same,Cmax,"[6]; po, 30 mg/kg",57.1 ng/mL
same,MRT inf,"[6]; po, 30 mg/kg",9.22 h
same,Tmax,"[6]; po, 30 mg/kg",0.5 h
same,half-life,"[6]; po, 30 mg/kg",9.63 h
same,cell count average value Bifidobacterium,[7]; T0 (before treatment),6.87 × 10^6
same,Ct Values Bifidobacterium,[7]; T0 (before treatment),15.880 and 14.080 and 22.166 and 21.412 and 24.420 and 23.158
same,Cell Count Bifidobacterium,[7]; T0 (before treatment),9.11E+06 cells per mg of stool and 3.17E+07 cells per mg of stool and 1.17E+05 cells per mg of stool and 1.97E+05 cells per mg of stool and 2.45E+04 cells per mg of stool and 5.87E+04 cells per mg of stool
same,cell count average value Bifidobacterium,[7]; [12],8.26 × 10^6
same,Ct Values Bifidobacterium,[7]; [13],13.747 and 16.114 and 24.545 and 18.232 and 27.172 and 26.104
same,Cell Count Bifidobacterium,[7]; [13],4.00E+07 cells per mg of stool and 7.75E+06 cells per mg of stool and 2.25E+04 cells per mg of stool and 1.79E+06 cells per mg of stool and 3.64E+03 cells per mg of stool and 7.62E+03 cells per mg of stool
same,decrease in the bacterial count for the Bifidobacterium genus,[7]; [14],no significant differences
same,cell count average value Enterobacter,[8]; T0 (before treatment),2.69 × 10^6
same,Ct Values Enterobacter,[8]; T0 (before treatment),17.704 and 23.688 and 16.284 and 17.749 and 17.616 and 18.371
same,Cell Count Enterobacter,[8]; T0 (before treatment),2.57E+06 cells per mg of stool and 4.07E+04 cells per mg of stool and 6.89E+06 cells per mg of stool and 2.50E+06 cells per mg of stool and 2.74E+06 cells per mg of stool and 1.62E+06 cells per mg of stool
same,cell count average value Enterobacter,[8]; [12],5.98 × 10^5
same,Ct Values Enterobacter,[8]; [13],20.143 and 25.467 and 17.828 and 21.542 and 23.096 and 20.066
same,Cell Count Enterobacter,[8]; [13],4.75E+05 cells per mg of stool and 1.19E+04 cells per mg of stool and 2.36E+06 cells per mg of stool and 1.80E+05 cells per mg of stool and 6.13E+04 cells per mg of stool and 5.01E+05 cells per mg of stool
same,drop in cell count for the Enterobacter genus,[8]; [14],about 10 times
same,cell count average value Enterococcus,[9]; T0 (before treatment),9.2 × 10^6
same,Ct Values Eterococcus,[9]; T0 (before treatment),23.236 and 22.741 and 14.976 and 16.124 and 18.925 and 14.203
same,Cell Count Eterococcus,[9]; T0 (before treatment),5.56E+04 cells per mg of stool and 7.84E+04 cells per mg of stool and 1.71E+07 cells per mg of stool and 7.70E+06 cells per mg of stool and 1.10E+06 cells per mg of stool and 2.91E+07 cells per mg of stool
same,cell count average value Enterococcus,[9]; [12],28 × 10^4
same,Ct Values Eterococcus,[9]; [13],23.676 and 24.09 and 24.608 and 23.121 and 25.293 and 26.739
same,Cell Count Eterococcus,[9]; [13],4.10E+04 cells per mg of stool and 3.06E+04 cells per mg of stool and .15E+04 cells per mg of stool and 6.03E+04 cells per mg of stool and 1.34E+04 cells per mg of stool and 4.91E+03 cells per mg of stool
same,drop in cell count for the Enterococcus genus,[9]; [14],about 100 times
same,cell count average value Lactobacillus,[10]; T0 (before treatment),1.3 × 10^6
same,Ct Values Lactobacillus,[10]; T0 (before treatment),20.565 and 20.928 and 19.111 and 20.465 and 17.200 and 17.852
same,Cell Count Lactobacillus,[10]; T0 (before treatment),3.55E+05 cells per mg of stool and 2.75E+05 cells per mg of stool and 9.71E+05 cells per mg of stool and 3.80E+05 cells per mg of stool and 3.65E+06 cells per mg of stool and 2.32E+06 cells per mg of stool
same,cell count average value Lactobacillus,[10]; [12],6.6 × 10^5
same,Ct Values Lactobacillus,[10]; [13],20.364 and 19.891 and 18.746 and 19.308 and 19.872 and 20.306
same,Cell Count Lactobacillus,[10]; [13],4.07E+05 cells per mg of stool and 5.65E+05 cells per mg of stool and 1.25E+06 cells per mg of stool and 8.47E+05 cells per mg of stool and 5.73E+05 cells per mg of stool and 4.24E+05 cells per mg of stool
same,change in cell count for the Lactobacillus genus,[10]; [14],no significant differences
same,solubility,[11]; in the presence of 20 mM bile acids,72.6%
same,solubility,[11]; in water,0.6%
